Measured values taken from patent US11440906B2, “Biguanide derivatives and their rearrangement products for use in the treatment of cancer” (CENTRE NATIONAL DE LA RECHERCHE SCIENTIFIQUE, priority 2017, dated 2022).
Read-outs that look alike come from different tables or passages of the source.

Legend:
A375 Sensitive cells = experiment: Viability test, trypan blue exclusion, A375 Sensitive cells; type: cell-based, human; settings: Homo sapiens, A-375, viable cells as percentage of DMSO control
In short: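 A375 (B-Raf, CDKN2A, PTEN mutant) cells were exposed to compounds at 5.0 or 10 μM for 24 or 48 hr; CRO15 also at 0.5–50 μM for 48 hr or 5 μM for 2–48 hr; DMSO control. Viable cells were counted by trypan blue exclusion, as % of control. Three experiments in triplicate.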

[1] = tested on: A375 resistant melanoma cells; experiment: In vivo murine cancer model, A375 resistant xenograft; set-up: species or system BALB/c nu/nu (nude) mice; settings: 0.7 mg/mouse/day intraperitoneal
Procedure: Animal experiments were carried out in accordance with the Declaration of Helsinki and were approved by a local ethical committee CIEPAL (Comité Institutionnel d'Ethique Pour l'Animal de Laboratoire-Azur). Female immune-deficient BALB/c nu/nu (nude) mice were obtained at 5 weeks of age from Envigo Laboratory (Gannat, France). Nude mice were inoculated subcutaneously with A375 sensitive or resistant melanoma cells (1.0×10^6 cells/mouse). After tumor apparition (±5 days), animals received intraperitoneal injection of Labrafil (Control), PLX4032 (0.7 mg/mouse/day) or CRO15 (0.7 mg/mouse/day) dissolved in Labrafil. The growth tumor curves were determined by measuring the tumor volume using the equation V=(L*W2)/2 (V=tumor volume, W=tumor width, L=tumor length). At the end of the experiment, mice were euthanized by cervical dislocation and tumors were taken for western blot and immunofluorescence experiments (LC3, Cleaved Caspase 3). TUNEL assay was performed using the In Situ Cell Death Detection Kit (Roche, Meylan, France). The results are shown in FIGS. 3A and 3B (A375 sensitive melanoma cells), and 4B and 4C (A375 resistant melanoma cells).
In Vivo Murine Cancer Model Animal experiments were carried out in accordance with the Declaration of Helsinki and were approved by a local ethical committee CIEPAL (Comite Institutionnel d'Ethique Pour l'Animal de Laboratoire-Azur). Female immune-deficient BALB/c nu/nu (nude) mice were obtained at 5 weeks of age from Envigo Laboratory (Gannat, France). Nude mice were inoculated subcutaneously with A375 resistant melanoma cells (1.0×10^6 cells/mouse). After tumor apparition (+5 days), animals received intraperitoneal injection of Labrafil (Control), PLX4032 (0.7 mg/mouse/day) or MTF319 (0.7 mg/mouse/day) dissolved in Labrafil. The growth tumor curves were determined by measuring the tumor volume using the equation V=(L*W2)/2 (V=tumor volume, W=tumor width, L=tumor length). At the end of the experiment, mice were euthanized by cervical dislocation.

melanoma cells = settings: literature, read-out: IC50 to induce cell death; cited from earlier work
[2] = 24 h, read-out: Viab A375 5 μM/ 24 h
[3] = 48 h, read-out: Viab A375 5 μM/ 48 h
[4] = 24 h, read-out: Viab A375 10 μM/ 24 h
[5] = 48 h, read-out: Viab A375 10 μM/ 48 h

Row | Compound | viability at 5 µM (A375 Sensitive cells; [2]) [%] | viability at 5 µM (A375 Sensitive cells; [3]) [%] | viability at 10 µM (A375 Sensitive cells; [4]) [%] | viability at 10 µM (A375 Sensitive cells; [5]) [%] | tumor volume ([1]; FIG. 4B, 6A) | tumor weight ([1]; FIG. 4C, 6B) | IC50 (melanoma cells) [mM]
1 | CCOc1cccc(-c2nc(N)nc(Nc3ccccc3SSc3ccccc3Nc3nc(N)nc(-c4cccc(OCC)c4)n3)n2)c1 [MTF 319, N2,N2′-(disulfanediylbis(2,1-phenylene))bis(6-(3-ethoxyphenyl)-1,3,5-triazine-2,4-diamine)] | 8.6 | 3.1 | 8.6 | 0.6 | decrease in tumor volume | had an effect on the tumor growth | 
2 | Nc1nc(Nc2ccccc2SSc2ccccc2Nc2nc(N)nc(-c3c(Cl)cccc3Cl)n2)nc(-c2c(Cl)cccc2Cl)n1 [MTF 455, N2,N2′-(disulfanediylbis(2,1-phenylene))bis(6-(2,6-dichlorophenyl)-1,3,5-triazine-2,4-diamine)] | 89 | 108 | 32.3 | 69.5 |  |  | 
3 | Nc1nc(Nc2ccccc2SSc2ccccc2Nc2nc(N)nc(-c3c(Br)cncc3Br)n2)nc(-c2c(Br)cncc2Br)n1 [MTF 456, N2,N2′-(disulfanediylbis(2,1-phenylene))bis(6-(3,5-dibromopyridin-4-yl)-1,3,5-triazine-2,4-diamine)] | 66.5 | 87.5 | 52.3 | 76.1 |  |  | 
4 | Nc1nc(Nc2ccccc2SSc2ccccc2Nc2nc(N)nc(-c3cc4c(cc3Br)OCO4)n2)nc(-c2cc3c(cc2Br)OCO3)n1 [MTF 458, N2,N2′-(disulfanediylbis(2,1-phenylene))bis(6-(6-bromobenzo[d][1,3]dioxol-5-yl)-1,3,5-triazine-2,4-diamine)] | 58.7 | 86.8 | 46.5 | 104 |  |  | 
5 | Nc1cccc(-c2nc(N)nc(Nc3ccccc3SSc3ccccc3Nc3nc(N)nc(-c4cccc(N)c4)n3)n2)c1 [MTF 460, N2,N2′-(disulfanediylbis(2,1-phenylene))bis(6-(3-aminophenyl)-1,3,5-triazine-2,4-diamine)] | 61.9 | 69.5 | 64.5 | 38.6 |  |  | 
6 | CC(=O)c1cccc(-c2nc(N)nc(Nc3ccccc3SSc3ccccc3Nc3nc(N)nc(-c4cccc(C(C)=O)c4)n3)n2)c1 [MTF 462, 1,1′-((((disulfanediylbis(2,1-phenylene))bis(azanediyl))bis(6-amino-1,3,5-triazine-4,2-diyl))bis(3,1-phenylene))bis(ethan-1-one)] | 101 | 80 | 4.8 | 44.1 |  |  | 
7 | Nc1nc(Nc2ccccc2SSc2ccccc2Nc2nc(N)nc(-c3ccccc3[N+](=O)[O-])n2)nc(-c2ccccc2[N+](=O)[O-])n1 [MTF 463, N2,N2′-(disulfanediylbis(2,1-phenylene))bis(6-(2-nitrophenyl)-1,3,5-triazine-2,4-diamine)] | 80 | 74.3 | 56.1 | 43.4 |  |  | 
8 | CN(C)C(=N)N=C(N)N [metformin] |  |  |  |  |  |  | 10
